From US20080058293A1, “Quinoline Derivates and Their Use in Therapy” (priority 2003, published 2008)
Counter-ions that a name gives are not always drawn.

Target: T1, P2X7 receptor (Homo sapiens, UniProt Q99572)
T1 construct: 200 μl of a suspension of THP-1 cells; endogenous in cells; host or cells: THP-1 cells
T1 sequence (Q99572 1-595): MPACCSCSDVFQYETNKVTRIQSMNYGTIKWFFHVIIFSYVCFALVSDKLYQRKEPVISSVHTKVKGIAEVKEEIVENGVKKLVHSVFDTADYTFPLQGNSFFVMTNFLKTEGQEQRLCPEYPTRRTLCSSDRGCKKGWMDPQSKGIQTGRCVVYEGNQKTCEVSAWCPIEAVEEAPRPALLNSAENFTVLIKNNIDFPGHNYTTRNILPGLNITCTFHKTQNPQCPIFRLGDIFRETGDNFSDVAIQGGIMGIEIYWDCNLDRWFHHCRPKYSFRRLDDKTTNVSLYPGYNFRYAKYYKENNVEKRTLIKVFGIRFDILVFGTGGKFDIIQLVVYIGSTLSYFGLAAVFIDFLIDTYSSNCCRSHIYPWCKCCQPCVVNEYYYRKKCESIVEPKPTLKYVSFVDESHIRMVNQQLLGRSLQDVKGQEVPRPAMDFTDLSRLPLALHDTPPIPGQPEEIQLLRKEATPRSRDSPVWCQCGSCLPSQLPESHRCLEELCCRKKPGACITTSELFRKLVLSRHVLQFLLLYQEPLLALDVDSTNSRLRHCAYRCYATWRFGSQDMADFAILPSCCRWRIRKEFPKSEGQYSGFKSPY
Experiment: bbATP-induced ethidium bromide fluorescence in THP-1 cells, P2X7 receptor antagonist activity
Assay type: cell-based
Conditions: negative logarithm of concentration reducing bbATP agonist activity by 50%, 10^-5M bbATP, 37° C. one hour
Text: Certain compounds such as benzoylbenzoyl adenosine triphosphate (bbATP) are known to be agonists of the P2X7 receptor, effecting the formation of pores in the plasma membrane (Drug Development Research (1996), 37(3), p. 126). Consequently, when the receptor is activated using bbATP in the presence of ethidium bromide (a fluorescent DNA probe), an increase in the fluorescence of intracellular DNA-bound ethidium bromide is observed. The increase in fluorescence can be used as a measure of P2X7 receptor activation and therefore to quantify the effect of a compound on the P2X7 receptor.
In this manner, each of the title compounds of the Examples was tested for antagonist activity at the P2X7 receptor. Thus, the test was performed in 96-well flat bottomed microtitre plates, the wells being filled with 250 μl of test solution comprising 200 μl of a suspension of THP-1 cells (2.5×10^6 cells/ml) containing 10^−4M ethidium bromide, 25 μl of a high potassium buffer solution containing 10^−5M bbATP, and 25 μl of the high potassium buffer solution containing 3×10^−5M test compound. The plate was covered with a plastics sheet and incubated at 37° C. for one hour. The plate was then read in a Perkin-Elmer fluorescent plate reader, excitation 520 nm, emission 595 nm, slit widths: Ex 15 nm, Em 20 nm. For the purposes of comparison, bbATP (a P2X7 receptor agonist) and pyridoxal 5-phosphate (a P2X7 receptor antagonist) were used separately in the test as controls.

| Compound | IC50 |
| --- | --- |
| O=C(CCc1ccccc1Cl)Nc1c(Cl)ccc2nc(N3CCC(C(=O)O)CC3)ccc12 [Example 20, 1-[6-Chloro-5-[[3-(2-chlorophenyl)-1-oxopropyl]amino]-2-quinolinyl]-4-piperidinecarboxylic acid, potassium salt] | 794 nM |
| CNCCCN(C)c1ccc2c(NC(=O)C[C@@H](C)c3ccccc3)c(Cl)ccc2n1 [Example 3, (βR)-N-[6-Chloro-2-[methyl[3-(methylamino)propyl]amino]-5-quinolinyl]-β-methyl-benzenepropanamide, ditrifluoroacetate] | 31.6 nM |
